Tested on: L. acidophilus NCFM
Test: RNA-seq transcriptional analysis of L. acidophilus NCFM growing on plant glycosides
Type: cell-based, Lactobacillus acidophilus
[1] = LBA1481 D-ribose-binding protein precursor, COG G
[2] = LBA1482 Ribose ABC transporter, COG G
[3] = LBA1483 Ribose ABC transporter ATP binding protein, COG G
[4] = LBA1484 D-ribose pyranase, COG G
[5] = LBA1494 Lincomycin-resistance protein, COG GEPR
[6] = LBA1607 Phosphatidylserine decarboxylase precursor, COG I
[7] = LBA1632 NAD-dependent aldehyde dehydrogenase, COG C
[8] = LBA1653 Nicotinamide mononucleotide, COG H
[9] = LBA1684 Putative PTS system IIA component, COG G
[10] = LBA1689 Maltose-6′-phosphate Oucosidase, COG G
[11] = LBA1700 Transcriptional regulator-type, COG K
[12] = LBA1701 Melibiose operon regulatory protein, COG K
[13] = LBA1705 PTS system IIBC component, COG G
[14] = LBA1708 Transcriptional antiterminator, COG K
[15] = LBA1710 Thermostable pullulanase, COG G
[16] = LBA1812 Alpha-glucosidase II, COG G
[17] = LBA1870 Maltose phosphorylase, COG G
[18] = LBA1872 Oligo-1,6-glucosidase, COG G
[19] = LBA1955 Transcription regulator family protein, COG K
[20] = gene LBA0046 (Hypothetical protein)
[21] = gene LBA0149 (Putative nucleotide-binding protein)
[22] = gene LBA0263 (Hypothetical protein)

Q: Which “Log2 differential normalized TPM ratio compared to glucose” value [1] does the source give for `OCc1ccccc1O[C@@H]1O[C@H](CO)[C@@H](O)[C@H](O)[C@H]1O` [Salicin] here?
A: The value was 0.4.

Q: What about the “Log2 differential normalized TPM ratio compared to lactose” value [1] of the same compound?
A: The value was −0.4.

Q: What about the “Transcripts per million (rpm)” value [1] of the same compound?
A: The value was 6.4 rpm.

Q: And the “Log2 differential normalized TPM ratio compared to glucose” value [2]?
A: The value was 0.7.

Q: What about the “Log2 differential normalized TPM ratio compared to lactose” value [2] of the same compound?
A: Its value is −0.4.

Q: And the “Transcripts per million (rpm)” value [2]?
A: The value was 6.1 rpm.

Q: What about the “Log2 differential normalized TPM ratio compared to glucose” value [3] of the same compound?
A: The value was 0.4.

Q: And the “Log2 differential normalized TPM ratio compared to lactose” value [3]?
A: Its value is −0.7.

Q: And the “Transcripts per million (rpm)” value [3]?
A: The value was 4.2 rpm.

Q: What about the “Log2 differential normalized TPM ratio compared to glucose” value [4] of the same compound?
A: Its value is 0.2.

Q: What about the “Log2 differential normalized TPM ratio compared to lactose” value [4] of the same compound?
A: Its value is −0.5.

Q: And the “Transcripts per million (rpm)” value [4]?
A: The value was 4.5 rpm.

Q: And the “Log2 differential normalized TPM ratio compared to glucose” value (LBA1485 Ribokinase, COG G)?
A: Its value is 0.5.

Q: What about the “Log2 differential normalized TPM ratio compared to lactose” value (LBA1485 Ribokinase, COG G) of the same compound?
A: The value was −0.3.

Q: And the “Transcripts per million (rpm)” value (LBA1485 Ribokinase, COG G)?
A: Its value is 4.5 rpm.

Q: What about the “Log2 differential normalized TPM ratio compared to glucose” value [5] of the same compound?
A: The value was 0.6.

Q: What about the “Log2 differential normalized TPM ratio compared to lactose” value [5] of the same compound?
A: Its value is 0.5.

Q: And the “Transcripts per million (rpm)” value [5]?
A: The value was 8.2 rpm.

Q: And the “Log2 differential normalized TPM ratio compared to glucose” value [6]?
A: Its value is 0.9.

Q: What about the “Log2 differential normalized TPM ratio compared to lactose” value [6] of the same compound?
A: Its value is −0.2.

Q: What about the “Transcripts per million (rpm)” value [6] of the same compound?
A: The value was 37.9 rpm.

Q: What about the “Log2 differential normalized TPM ratio compared to glucose” value [7] of the same compound?
A: Its value is 2.

Q: What about the “Log2 differential normalized TPM ratio compared to lactose” value [7] of the same compound?
A: Its value is 0.2.

Q: And the “Transcripts per million (rpm)” value [7]?
A: Its value is 300.2 rpm.

Q: What about the “Log2 differential normalized TPM ratio compared to glucose” value [8] of the same compound?
A: The value was 1.3.

Q: What about the “Log2 differential normalized TPM ratio compared to lactose” value [8] of the same compound?
A: Its value is 0.7.

Q: And the “Transcripts per million (rpm)” value [8]?
A: The value was 618.8 rpm.

Q: And the “Log2 differential normalized TPM ratio compared to glucose” value [9]?
A: Its value is 2.6.

Q: What about the “Log2 differential normalized TPM ratio compared to lactose” value [9] of the same compound?
A: Its value is 0.6.

Q: And the “Transcripts per million (rpm)” value [9]?
A: Its value is 76.9 rpm.

Q: And the “Log2 differential normalized TPM ratio compared to glucose” value [10]?
A: The value was 3.7.

Q: What about the “Log2 differential normalized TPM ratio compared to lactose” value [10] of the same compound?
A: The value was 2.2.

Q: What about the “Transcripts per million (rpm)” value [10] of the same compound?
A: Its value is 47.4 rpm.

Q: What about the “Log2 differential normalized TPM ratio compared to glucose” value [11] of the same compound?
A: Its value is 0.1.

Q: And the “Log2 differential normalized TPM ratio compared to lactose” value [11]?
A: Its value is −0.4.

Q: What about the “Transcripts per million (rpm)” value [11] of the same compound?
A: Its value is 23 rpm.

Q: What about the “Log2 differential normalized TPM ratio compared to glucose” value [12] of the same compound?
A: The value was 1.

Q: And the “Log2 differential normalized TPM ratio compared to lactose” value [12]?
A: The value was 0.2.

Q: What about the “Transcripts per million (rpm)” value [12] of the same compound?
A: Its value is 84.1 rpm.

Q: And the “Log2 differential normalized TPM ratio compared to glucose” value [13]?
A: Its value is 1.3.

Q: What about the “Log2 differential normalized TPM ratio compared to lactose” value [13] of the same compound?
A: Its value is 0.4.

Q: And the “Transcripts per million (rpm)” value [13]?
A: Its value is 8.4 rpm.

Q: And the “Log2 differential normalized TPM ratio compared to glucose” value [14]?
A: Its value is 1.2.

Q: And the “Log2 differential normalized TPM ratio compared to lactose” value [14]?
A: The value was −0.2.

Q: What about the “Transcripts per million (rpm)” value [14] of the same compound?
A: The value was 1.3 rpm.

Q: And the “Log2 differential normalized TPM ratio compared to glucose” value [15]?
A: The value was 0.5.

Q: What about the “Log2 differential normalized TPM ratio compared to lactose” value [15] of the same compound?
A: Its value is 0.1.

Q: What about the “Transcripts per million (rpm)” value [15] of the same compound?
A: The value was 10.8 rpm.

Q: What about the “Log2 differential normalized TPM ratio compared to glucose” value (LBA1723 Transposase, COG L) of the same compound?
A: The value was 0.5.

Q: What about the “Log2 differential normalized TPM ratio compared to lactose” value (LBA1723 Transposase, COG L) of the same compound?
A: Its value is 0.2.

Q: What about the “Transcripts per million (rpm)” value (LBA1723 Transposase, COG L) of the same compound?
A: The value was 75.5 rpm.

Q: What about the “Log2 differential normalized TPM ratio compared to glucose” value [16] of the same compound?
A: The value was 2.2.

Q: And the “Log2 differential normalized TPM ratio compared to lactose” value [16]?
A: The value was 0.1.

Q: And the “Transcripts per million (rpm)” value [16]?
A: Its value is 75.4 rpm.

Q: And the “Log2 differential normalized TPM ratio compared to glucose” value [17]?
A: The value was −0.9.

Q: What about the “Log2 differential normalized TPM ratio compared to lactose” value [17] of the same compound?
A: Its value is 0.2.

Q: And the “Transcripts per million (rpm)” value [17]?
A: Its value is 55.6 rpm.

Q: What about the “Log2 differential normalized TPM ratio compared to glucose” value (LBA1871 Neopullulanase, COG G) of the same compound?
A: Its value is 0.9.

Q: And the “Log2 differential normalized TPM ratio compared to lactose” value (LBA1871 Neopullulanase, COG G)?
A: The value was 0.2.

Q: And the “Transcripts per million (rpm)” value (LBA1871 Neopullulanase, COG G)?
A: The value was 5.1 rpm.

Q: And the “Log2 differential normalized TPM ratio compared to glucose” value [18]?
A: Its value is 1.

Q: What about the “Log2 differential normalized TPM ratio compared to lactose” value [18] of the same compound?
A: The value was 0.6.

Q: And the “Transcripts per million (rpm)” value [18]?
A: The value was 6.2 rpm.

Q: What about the “Log2 differential normalized TPM ratio compared to glucose” value (LBA1873 Acetate kinase, COG C) of the same compound?
A: The value was 1.2.

Q: And the “Log2 differential normalized TPM ratio compared to lactose” value (LBA1873 Acetate kinase, COG C)?
A: Its value is −0.2.

Q: And the “Transcripts per million (rpm)” value (LBA1873 Acetate kinase, COG C)?
A: Its value is 8.3 rpm.

Q: And the “Log2 differential normalized TPM ratio compared to glucose” value (LBA1878 Glycerol kinase, COG C)?
A: Its value is 0.1.

Q: And the “Log2 differential normalized TPM ratio compared to lactose” value (LBA1878 Glycerol kinase, COG C)?
A: The value was 0.

Q: And the “Transcripts per million (rpm)” value (LBA1878 Glycerol kinase, COG C)?
A: The value was 9.3 rpm.

Q: And the “Log2 differential normalized TPM ratio compared to glucose” value [19]?
A: The value was −0.3.

Q: What about the “Log2 differential normalized TPM ratio compared to lactose” value [19] of the same compound?
A: Its value is 0.1.

Q: What about the “Transcripts per million (rpm)” value [19] of the same compound?
A: The value was 428.6 rpm.

Q: What about the “number of up-regulated genes” value (RNA-seq, compared to glucose) of the same compound?
A: The value was 33 genes.

Q: What about the “number of uniquely induced genes” value (RNA-seq, up-regulated genes not shared with the other PGs) of the same compound?
A: The value was 0.

Q: And the “Log2 differential normalized TPM ratio compared to glucose” value [20]?
A: The value was −0.2.

Q: And the “Log2 differential normalized TPM ratio compared to lactose” value [20]?
A: Its value is −0.9.

Q: And the “Transcripts per million (rpm)” value [20]?
A: The value was 270.7 rpm.

Q: What about the “Log2 differential normalized TPM ratio compared to glucose” value [21] of the same compound?
A: Its value is 1.2.

Q: And the “Log2 differential normalized TPM ratio compared to lactose” value [21]?
A: Its value is 0.4.

Q: What about the “Transcripts per million (rpm)” value [21] of the same compound?
A: Its value is 1141 rpm.

Q: What about the “Log2 differential normalized TPM ratio compared to glucose” value [22] of the same compound?
A: Its value is 0.9.

Q: And the “Log2 differential normalized TPM ratio compared to lactose” value [22]?
A: Its value is 0.1.

Q: What about the “Transcripts per million (rpm)” value [22] of the same compound?
A: The value was 30.2 rpm.

Q: What about the “Log2 differential normalized TPM ratio compared to glucose” value (gene LBA0282 (Hypothetical protein)) of the same compound?
A: The value was 0.7.
